Measured values: patent publication US9844522B2 (LIFE & BRAIN GMBH, priority 2012, dated 2017)
Entries after “also recorded” stand apart in the source; their conditions may differ. Like-named read-outs stand apart in the source and are kept apart here.

Legend:
[1] = system: pGBMs; assay: Combinatorial pharmacodynamics niclosamide and TMZ (alamarBlue); format: cell-based; conditions: Homo sapiens; 50 μM TMZ alone, pGBMs n=7, triplicate; read-out: Metabolic activity, % of control levels
Description: (§1) For pharmacodynamic analysis, 5×10^4 cells were plated in 12-well-plates at 24 hours before application of compound-series and compound combinations, respectively. alamarBlue®-based analysis was conducted at 3-5 days post treatment. Experiments were performed in triplicates. IMC50 was defined as the compound concentration that reduced the metabolic activity by 50% compared to control conditions and determined via data analysis in GraphPad Prism 4.0.

[2] = system: standard GBM cell lines; assay: as above; format: cell-based; conditions: Homo sapiens; 50 μM TMZ alone, GBMs (standard cell lines); read-out: Metabolic activity, % of control levels
Description: as §1

[3] = system: U87 glioma cell line; assay: Primary drug screening, alamarBlue metabolic activity; format: cell-based, human; conditions: 1 µM niclosamide for 5 days, triplicate
Description: (§2) The tested compounds were supplied to cells proliferating in a linear-exponential phase. For all used cell samples, respective titration experiments were conducted before analysis. 24 hours after seeding 2-3×10^3 cells/well into laminin/poly-L-ornithine coated 96-well plates, cells were treated with 1 μM of each compound (stock solution 10 mM in DMSO). Control cells were treated with 0.01-0.1% DMSO. Five days after application, metabolic activity as a measure of cell viability was determined using the alamarBlue® assay according to the manufacturers recommendations (Life Technologies). Fluorescence was measured using an Infinite200 microplate reader (Tecan) at λex=540 nm and λem=590 nm. Experiments were performed in triplicates for each sample.
(§3) A library comprising of 160 synthetic and natural toxic substances was used for the screening approach. Four pGBMs, previously shown to maintain patient- and GBM-specific signatures and to contain sub-populations of tumor cells with and without stem cell qualities served as a discovery platform (#'s 023, 035, 046, 106; see (10)). Primary screening was conducted based on the alamarBlue® assay determining the metabolic activity as a measure for cellular viability at day 5 following single application of the library's compounds. In the experiments, every compound that reduced the mean metabolic activity of the 4 pGBMs below 50% of control levels was considered as a ‘hit’.

[4] = system: pGBMs (primary glioblastoma cells); assay: as above; format: cell-based, human; conditions: for Metabolic activity in % of the activity of a control without niclosamide: triplicate
Description: as §2, §3

[5] = system: #155 non-malignant primary adult human neural progenitor cells (AHNPs); assay: as above; format: cell-based; conditions: control cells 155; 1 µM niclosamide for 5 days, triplicate
Description: as §2
as §3, with “In the experiments, every compound that reduced the mean metabolic activity of the 4 pGBMs below 50% of control levels was considered as a ‘hit’.” left out

[6] = system: 21 pGBMs; assay: Pharmacodynamic analysis (alamarBlue dose-response, IC50); format: cell-based; conditions: Homo sapiens, 120 h
Description: as §1

[7] = system: glioma/GBM cell lines LN229, T98G, U87, U138, U373; assay: as above; format: cell-based, human; conditions: defined media (dm) conditions
Description: as §1

[8] = system: non-malignant hnNCs (human non-malignant neural cells); assay: Pharmacodynamic analysis (alamarBlue dose-response); format: cell-based; conditions: three hnNCs, defined culture conditions
Description: as §1

[9] = system: hnNCs co-cultured with pGBMs; assay: Co-culture of pGBMs and hnNCs; format: cell-based, human; conditions: dm conditions, niclosamide 1 μM
[10] = system: Cyclin D1; assay: Western blot of Cyclin D1; format: cell-based, human; conditions: 24 hours post application
Description: (§4) Cell extracts were prepared at 24 to 144 hours following compound application and processed as described (49). Blot membranes were incubated overnight at 4° C. with antibodies against Cyclin-D1 (1:1000; BD Pharmingen), cleaved-Notch1 (1:1000), or phospho-S6 protein (1:1000; all Cell signaling) respectively. After washing, peroxidase-coupled secondary antibodies (Santa Cruz) were added for 1 hour. After washing, blots were developed using the ECL system (Millipore).

[11] = system: pGBMs; assay: Proliferation kinetics / long-term cell growth (CellaVista); format: cell-based, human
[12] = system: pGBMs; assay: Annexin V/Hoechst FACS analysis; format: cell-based, human; conditions: 5 days after application
[13] = system: non-malignant human cell sample #155; assay: Annexin V/Hoechst FACS analysis; format: cell-based; conditions: 5 days after application
Description: (B) CYCLIN D1 (CCND1)-western blot of cell extracts derived at this time point. […] Inset: mean data (n=5 pGBMs; **p<0.01). […] Right inset: representative scatter plots (#046). […] The graph exemplifies the time course of scratch closure for case #046 (mean±SD; triplicate analysis).
1×10^5 cells were collected at 5 days following compound application, settled by centrifugation, re-suspended in 100 μl AnnexinV buffer and incubated with 5 μl Annexin V-FITC for 1 hour at room temperature. To distinguish between living and dead cells, labeling with 1.2 μg/ml Hoechst 33258 was used Annexin V presence was determined using standard conditions in a LSRII equipped with FACSDiva Software (BD Bioscience). 2×10^4 cells were counted per measurement. The term ‘avital cells’ was used for Annexin V^+−, Annexin V^+/H33258^+, and H33258^+ cells.

[14] = system: pGBMs; assay: Cell migration analysis (scratch assay); format: cell-based, human; conditions: sub-toxic concentrations, 125 nM
Description: 5×10^4 cells were plated into 12-well-plates coated with laminin/poly-L-ornithine. […] Three days after plating (at a cell density of 70%), a scratch/wound was inflicted with a sterile pipette tip. Thereafter, culture media was exchanged to remove non-adherent cells. The Plaque Assay application of the CellaVista® system (Roche Diagnostics) was used according to the manufacturer's instructions to monitor the scratch/wound size over time. Triplicate analysis data±SEM.

[15] = system: self-renewing, multipotent cells among pGBMs; assay: Neurosphere assay; format: cell-based, human; conditions: single application 1.5 μM, vital cells collected at day 5
[16] = system: pGBM #046 grafts in Rag2Il2rg−/− mice; assay: Orthotopic tumor xenograft of pre-treated cells; format: in vivo; conditions: niclosamide pre-treated #046 pGBMs, n=5
[17] = system: pGBM #GNV019 grafts in Scid Beige mice; assay: Orthotopic tumor xenograft of pre-treated cells; format: in vivo; conditions: niclosamide pre-treated #GNV019 cells, single exposure, n=6
[18] = system: Notch pathway (cleaved Notch 1-protein); assay: Western blot of cleaved Notch 1; format: cell-based, human; conditions: day 5 after single-dose exposure, 4 pGBMs
Description: as §4
(§5) It is known that a circumscribed number of transcription factors and associated signaling pathways are overactive in human cancer cells (21). […] Characteristic for the active state of this mechanism, known to play an important role for tumor invasion, is an enhanced nuclear accumulation of β-catenin, phosphorylated at Ser^552 (26).

[19] = system: mTOR signaling (phosphorylated S6-protein); assay: Western blot of phospho-S6 protein; format: cell-based, human; conditions: day 5 after single-dose exposure, 4 pGBMs
Description: as §4, §5

[20] = system: phospho-β-catenin (Ser552); assay: Immunofluorescence of nuclear phospho-β-catenin (Ser552); format: cell-based, human; conditions: pGBMs
Source text: as §5

[21] = system: WNT/CTNNB1 target genes; assay: qRT-PCR of β-catenin target genes; format: cell-based, human; conditions: pGBMs
Source text: as §5

[22] = system: NF-κB-signaling (phospho-p65-NFκB protein); assay: Western blot of phospho-p65-NFκB (phospho-RELA); format: cell-based, human
[23] = system: NFKBIA; assay: qRT-PCR of NFKBIA expression; format: cell-based, human; conditions: NFKBIA+/− pGBMs and standard GBM models under dm conditions
Source text: On the other hand, it is known that the inhibition of NF-κB alone may not severely affect most solid tumors, rather that it may help to prevent resistance of cancer cells to chemotherapy (30, 31).

[24] = studies in animals; cited from earlier work
[25] = system: NFKBIA+/− pGBMs; assay: Control study with NFκB activator in combinatorial treatment; format: cell-based, human; conditions: NFKBIA+/− genotypes; niclo 1 μM, temozolomide 50 μM, TNF-a 50 ng/ml, 3 days
Description: FIG. 16: TNF-a antagonizes synergistic activity in NFKBIA+/− pGBMs. Graphs present data from combinatorial treatment paradigms in NFKBIA+/− (black) versus NFKBIA+/+ (gray) pGBMs at 3 days after compound application (niclo, 1 μM; temozolomide, 50 μM; TNF-a, 50 ng/ml). Insets, Western blot analyses of pREL A, indicating NF-kB pathway activity 24 hours after exposure to TNF-a, (Ta; 50 ng/ml) or 0.002% bovine serum albumin (C; control). ***p<0.001; **p<0.01; *p<0.05 (triplicates; mean±SD; one-way ANOVA and Tukey post hoc tests).

With `Cn1nnc2c(C(N)=O)ncn2c1=O` [TMZ, temozolomide] the activity at 50 µM [1] was 94 ± 4% and the activity at 50 µM [2] was 89 ± 8%.
For `O=C(Nc1ccc([N+](=O)[O-])cc1Cl)c1cc(Cl)ccc1O` [niclosamide], the “Metabolic activity in % of the activity of a control without niclosamide” value [3] was 66.5%, the activity at 1 µM ([4]; Homo sapiens, 120 h, day 5 after single application, 1 μM of each compound, read-out: Mean metabolic activity of the 4 pGBMs, % of control levels ('hit' criterion)) was < 50% and the “Metabolic activity in % of the activity of a control without niclosamide, pGBMs average” value ([4]; average of pGBMs 023, 035, 046, 106, 1 µM niclosamide for 5 days) was 26.4%. The “Metabolic activity in % of the activity of a control without niclosamide” value ([4]; pGBM 023, 1 µM niclosamide for 5 days) was 32.3%, the “Metabolic activity in % of the activity of a control without niclosamide” value ([4]; pGBM 035, 1 µM niclosamide for 5 days) was 5.6% and the “Metabolic activity in % of the activity of a control without niclosamide” value ([4]; pGBM 046, 1 µM niclosamide for 5 days) was 34.6%. The “Metabolic activity in % of the activity of a control without niclosamide” value ([4]; pGBM 106, 1 µM niclosamide for 5 days) was 33.0%, the “Metabolic activity in % of the activity of a control without niclosamide” value [5] was 75.4% and the IC50 ([6]; day 5, read-out: IC50 (50% reduction of relative metabolic activity), lower end of range over 21 pGBMs) was ≥ 300 nM. For the same molecule, the IC50 ([6]; day 5, read-out: IC50 (50% reduction of relative metabolic activity), upper end of range over 21 pGBMs) was ≤ 1200 nM, the “Niclosamide effects on standard GBM model cell lines under dm conditions” value [7] was “highly similar to findings obtained from pGBMs” and the “Sensitivity of non-malignant hnNCs compared with pGBMs” value [8] was “significantly lower level of sensitivity”. The “Sensitivity of hnNCs in co-culture with pGBMs” value [9] was “lower sensitivity of hnNCs can be confirmed”, the “Cyclin D1 expression” value [10] was “strong decrease” and the “Delay of recovery of vital cells from cytostatic effects (long-term growth)” value ([11]; single application 1.5 μM) was 14 to 23 days. The Growth delay ([11]; single exposure, 1.5 μM, pGBMs 046, 078, 106) was 5 days, the “Vital cells (pro-apoptotic effect)” value [12] was “strong and pGBM-selective decrease of vital cells” and the “Pro-apoptotic effects in non-malignant cells” value [13] was “lack of pro-apoptotic effects”. For the same molecule, the “Effect on migration (scratch closure)” value [14] was “anti-migratory effects”, the “Frequencies of self-renewing, multipotent (sphere-forming) cells” value [15] was “reduced the frequencies of self-renewing, multipotent cells among pGBMs strongly” and the “Time after engraftment at which tumors developed / animals distressed” value ([16]; 10^6 cells into striatum) was 153 ± 23 days. The “Animals with tumor development” value [16] was 4/5, the “Tumor forming capacity of grafted cells” value [17] was “no animal that received niclosamide pre-treated grafts showed evidence for tumor formation; also recorded: completely extinguished the tumor forming capacity” and the “Notch pathway activity (cleaved Notch 1-protein levels)” value [18] was “concentration-dependent inhibition”. The “Levels of phosphorylated S6-protein” value [19] was “decrease in all samples”, the “Nuclear phospho-β-catenin (Ser552) antigen” value [20] was “strong decrease” and the “Expression of β-catenin target genes” value [21] was “significantly decreased”. The “NF-κB pathway (phospho-p65-NFκB protein levels)” value ([22]; pGBMs #046 and #078 (NFKBIA+/−) only, of four cases) was “pathway inhibition”, the NFKBIA expression [23] was “strongly up-regulate” and the “Mutagenic, oncogenic, embryotoxic activity and cumulative effects” value [24] was “no mutagenic, oncogenic, or embryotoxic activity and no cumulative effects”.
With TNFα the “NFκB activity in pGBMs” value ([22]; TNF-a 50 ng/ml, 24 hours) was “activated NFκB” and the “Effect on niclosamide/TMZ synergy” value [25] was “counteracted synergy effects”.
